Experimental data published in US7517884B2 (Kalypsys Inc., priority 1998, dated 2009).

Tests used:
Assay type in all cases: cell-based, murine and human
Conditions in all cases: GAL4-PPAR LBD chimera
PPAR-alpha = target: T1, PPAR-alpha (UniProt Q07869); test: PPAR-alpha transactivation assay (GAL4 chimera, luciferase reporter) in CV-1 cells
T1 sequence (Q07869 1-468): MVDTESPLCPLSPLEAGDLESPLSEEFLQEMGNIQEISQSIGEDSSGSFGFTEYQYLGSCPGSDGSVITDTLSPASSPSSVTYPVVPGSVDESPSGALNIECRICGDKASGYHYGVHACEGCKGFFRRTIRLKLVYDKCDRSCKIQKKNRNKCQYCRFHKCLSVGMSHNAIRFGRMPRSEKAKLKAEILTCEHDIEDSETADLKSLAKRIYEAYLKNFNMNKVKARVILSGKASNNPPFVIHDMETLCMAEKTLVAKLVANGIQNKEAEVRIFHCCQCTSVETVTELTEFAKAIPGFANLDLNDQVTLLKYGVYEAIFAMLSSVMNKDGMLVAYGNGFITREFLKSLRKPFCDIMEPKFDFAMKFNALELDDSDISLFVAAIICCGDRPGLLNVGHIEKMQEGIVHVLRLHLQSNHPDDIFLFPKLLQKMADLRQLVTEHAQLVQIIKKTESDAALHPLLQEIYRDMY
Excerpt: (§1) Compounds may be screened for functional potency in transient transfection assays in CV-1 cells for their ability to activate the PPAR subtypes (transactivation assay). A previously established chimeric receptor system was utilized to allow comparison of the relative transcriptional activity of the receptor subtypes on the same synthetic response element and to prevent endogenous receptor activation from complicating the interpretation of results. See, for example, Lehmann, J. M.; Moore, L. B.; Smith-Oliver, T. A; Wilkinson, W. O.; Willson, T. M.; Kliewer, S. A., An antidiabetic thiazolidinedione is a high affinity ligand for peroxisome proliferator-activated receptor […], J. Biol. Chem., 1995, 270, 12953-6. The ligand binding domains for murine and human PPAR-alpha, PPAR-gamma, and PPAR-delta are each fused to the yeast transcription factor GAL4 DNA binding domain. CV-1 cells were transiently transfected with expression vectors for the respective PPAR chimera along with a reporter construct containing four or five copies of the GAL4 DNA binding site driving expression of luciferase. After 8-16 h, the cells are replated into multi-well assay plates and the media is exchanged to phenol-red free DME medium supplemented with 5% delipidated calf serum. 4 hours after replating, cells were treated with either compounds or 1% DMSO for 20-24 hours. Luciferase activity was then assayed with Britelite (Perkin Elmer) following the manufacturer's protocol and measured with either the Perkin Elmer Viewlux or Molecular Devices Acquest (see, for example, Kliewer, S. A., et. al. Cell 1995, 83, 813-819). Rosiglitazone is used as a positive control in the PPARγ assay. Wy-14643 and GW7647 are used as positive controls in the PPARα assay. GW501516 is used as the positive control in the PPARδ assay.
(§2) Compounds of Examples 1-141 were assayed to measure their biological activity with respect to their EC50 values for modulating PPAR-alpha, PPAR-gamma, and PPAR-delta as set forth in Table 1.

PPAR-delta = target: T2, PPAR-delta (UniProt Q03181); test: PPAR-delta transactivation assay (GAL4 chimera, luciferase reporter) in CV-1 cells
T2 sequence (Q03181 1-441): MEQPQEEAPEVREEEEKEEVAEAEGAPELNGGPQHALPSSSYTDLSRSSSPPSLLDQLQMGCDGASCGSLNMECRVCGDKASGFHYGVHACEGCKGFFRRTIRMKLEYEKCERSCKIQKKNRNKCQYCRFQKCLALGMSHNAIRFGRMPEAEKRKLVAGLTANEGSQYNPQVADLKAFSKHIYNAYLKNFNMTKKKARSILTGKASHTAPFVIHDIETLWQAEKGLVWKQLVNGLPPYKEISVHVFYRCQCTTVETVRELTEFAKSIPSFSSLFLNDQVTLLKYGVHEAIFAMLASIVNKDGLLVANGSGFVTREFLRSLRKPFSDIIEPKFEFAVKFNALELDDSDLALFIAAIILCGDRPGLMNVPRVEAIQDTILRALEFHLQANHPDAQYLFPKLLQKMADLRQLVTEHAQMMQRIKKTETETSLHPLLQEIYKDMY
Excerpt: as §1, §2

PPAR-gamma = target: T3, PPAR-gamma (UniProt P37231); test: PPAR-gamma transactivation assay (GAL4 chimera, luciferase reporter) in CV-1 cells
T3 sequence (P37231 1-505): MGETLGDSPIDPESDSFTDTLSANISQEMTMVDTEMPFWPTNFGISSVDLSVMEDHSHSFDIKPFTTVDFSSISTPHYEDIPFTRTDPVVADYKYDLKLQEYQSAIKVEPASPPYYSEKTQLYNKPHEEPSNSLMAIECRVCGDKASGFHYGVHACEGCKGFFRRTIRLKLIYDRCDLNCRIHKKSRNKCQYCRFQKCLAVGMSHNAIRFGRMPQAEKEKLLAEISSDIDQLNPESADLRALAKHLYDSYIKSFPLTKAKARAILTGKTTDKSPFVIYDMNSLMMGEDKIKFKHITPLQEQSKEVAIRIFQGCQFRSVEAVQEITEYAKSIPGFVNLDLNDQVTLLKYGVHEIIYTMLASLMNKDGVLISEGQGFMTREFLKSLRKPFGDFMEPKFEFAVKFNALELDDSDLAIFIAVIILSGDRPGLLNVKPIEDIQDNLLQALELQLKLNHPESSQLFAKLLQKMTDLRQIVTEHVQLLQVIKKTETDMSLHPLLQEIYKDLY
Excerpt: as §1, §2

EC50 (PPAR-alpha)	EC50 (PPAR-delta)	EC50 (PPAR-gamma)	Structure (SMILES)
5 to 100 µM	5 to 100 µM	5 to 100 µM	O=C(O)CC1Cc2ccc(S(=O)(=O)N3CCN(c4ccc(Cl)c(Cl)c4)CC3)cc2C1 (stereo not drawn) [Example 3, {5-[4-(3,4-dichlorophenyl)-piperazine-1-sulfonyl]-indan-2-yl}-acetic acid]
> 100 µM	5 to 100 µM	> 100 µM	O=C(O)CC1Cc2cccc(S(=O)(=O)N3CCN(c4ccc(Cl)c(Cl)c4)CC3)c2C1 (stereo not drawn) [Example 4, {4-[4-(3,4-dichlorophenyl)-piperazine-1-sulfonyl]-indan-2-yl}-acetic acid]
5 to 100 µM	< 5 µM	5 to 100 µM	O=C(O)C1Cc2ccc(S(=O)(=O)N3CCN(c4ccc(C(F)(F)F)cc4)CC3)cc2C1 (stereo not drawn) [Example 5, 5-[4-(4-trifluoromethyl-phenyl)-piperazine-1-sulfonyl]-indan-2-carboxylic acid]
> 100 µM	< 5 µM	< 5 µM	O=C(O)C1Cc2cccc(S(=O)(=O)N3CCN(c4ccc(C(F)(F)F)cc4)CC3)c2C1 (stereo not drawn) [Example 6, 4-[4-(4-trifluoromethyl-phenyl)-piperazine-1-sulfonyl]-indan-2-carboxylic acid]
5 to 100 µM	< 5 µM	5 to 100 µM	O=C(O)C1Cc2ccc(S(=O)(=O)N3CCN(c4ccc(Cl)c(Cl)c4)CC3)cc2C1 (stereo not drawn) [Example 7, 5-[4-(3,4-dichlorophenyl)-piperazine-1-sulfonyl]-indan-2-carboxylic acid]
5 to 100 µM	< 5 µM	< 5 µM	O=C(O)C1Cc2cccc(S(=O)(=O)N3CCN(c4ccc(Cl)c(Cl)c4)CC3)c2C1 (stereo not drawn) [Example 8, 4-[4-(3,4-dichlorophenyl)-piperazine-1-sulfonyl]-indan-2-carboxylic acid]
5 to 100 µM	< 5 µM	5 to 100 µM	O=C(O)C1Cc2ccc(S(=O)(=O)N3CCN(c4ccc(C(F)(F)F)cn4)CC3)cc2C1 (stereo not drawn) [Example 9]
5 to 100 µM	5 to 100 µM	5 to 100 µM	O=C(O)C1Cc2ccc(S(=O)(=O)N3CCN(c4cccc(C(F)(F)F)c4)CC3)cc2C1 (stereo not drawn) [Example 15, 5-[4-(3-trifluoromethyl-phenyl)-piperazine-1-sulfonyl]-indan-2-carboxylic acid]
5 to 100 µM	< 5 µM	5 to 100 µM	O=C(O)C1Cc2cccc(S(=O)(=O)N3CCN(c4cccc(C(F)(F)F)c4)CC3)c2C1 (stereo not drawn) [Example 16, 4-[4-(3-trifluoromethyl-phenyl)-piperazine-1-sulfonyl]-indan-2-carboxylic acid]
< 5 µM	< 5 µM	< 5 µM	O=C(O)C1CCc2ccc(S(=O)(=O)N3CCN(c4ccc(C(F)(F)F)cc4)CC3)cc21 (stereo not drawn) [Example 19, 6-[4-(4-trifluoromethyl-phenyl)-piperazine-1-sulfonyl]-indan-1-carboxylic acid]
5 to 100 µM	5 to 100 µM	5 to 100 µM	O=C(O)C1CCc2ccc(S(=O)(=O)N3CCN(c4ccc5c(c4)OCO5)CC3)cc21 (stereo not drawn) [Example 21, 6-(4-Benzo[1,3]dioxol-5-yl-piperazine-1-sulfonyl)-indan-1-carboxylic acid]
< 5 µM	< 5 µM	< 5 µM	O=C(O)C1CCc2ccc(S(=O)(=O)N3CCN(c4ccc(C(F)(F)F)c(F)c4)CC3)cc21 (stereo not drawn) [Example 26, 6-[4-(3-fluoro-4-trifluoromethyl-phenyl)-piperazine-1-sulfonyl]-indan-1-carboxylic acid]

Second part, the compound before the results:

Structure (SMILES)	EC50 (PPAR-alpha)	EC50 (PPAR-delta)	EC50 (PPAR-gamma)
O=C(O)CC1Cc2cccc(S(=O)(=O)N3CCN(c4ccc(C(F)(F)F)cc4)CC3)c2C1 (stereo not drawn) [Example 2, {4-[4-(4-trifluoromethyl-phenyl)-piperazine-1-sulfonyl]-indan-2-yl}-acetic acid]	> 100 µM	< 5 µM	5 to 100 µM
CC1(C(=O)O)Cc2ccc(S(=O)(=O)N3CCN(c4ccc(C(F)(F)F)cn4)CC3)cc2C1 (stereo not drawn) [Example 13, 2-methyl-5-[4-(5-trifluoromethyl-pyridin-2-yl)-piperazine-1-sulfonyl]-indan-2-carboxylic acid]	5 to 100 µM	< 5 µM	5 to 100 µM
CC1(C(=O)O)Cc2cccc(S(=O)(=O)N3CCN(c4ccc(C(F)(F)F)cn4)CC3)c2C1 (stereo not drawn) [Example 14, 2-methyl-4-[4-(5-trifluoromethyl-pyridin-2-yl)-piperazine-1-sulfonyl]-indan-2-carboxylic acid]	> 100 µM	5 to 100 µM	5 to 100 µM
O=C(O)C1Cc2ccc(S(=O)(=O)N3CC=C(c4ccc(C(F)(F)F)cc4)CC3)cc2C1 (stereo not drawn) [Example 17, 5-[4-(4-trifluoromethyl-phenyl)-3,6-dihydro-2H-pyridine-1-sulfonyl]-indan-2-carboxylic acid]	5 to 100 µM	5 to 100 µM	5 to 100 µM
O=C(O)C1Cc2cccc(S(=O)(=O)N3CC=C(c4ccc(C(F)(F)F)cc4)CC3)c2C1 (stereo not drawn) [Example 18, 4-[4-(4-trifluoromethyl-phenyl)-3,6-dihydro-2H-pyridine-1-sulfonyl]-indan-2-carboxylic acid]	5 to 100 µM	< 5 µM	5 to 100 µM
O=C(O)C1CCc2ccc(S(=O)(=O)N3CCN(c4ccc(C(F)(F)F)cn4)CC3)cc21 (stereo not drawn) [Example 20, 6-[4-(5-trifluoromethyl-pyridin-2-yl)-piperazine-1-sulfonyl]-indan-1-carboxylic acid]	< 5 µM	< 5 µM	< 5 µM
O=C(O)C1CCc2ccc(S(=O)(=O)N3CC=C(c4ccc(C(F)(F)F)cc4)CC3)cc21 (stereo not drawn) [Example 22, 6-[4-(4-trifluoromethyl-phenyl)-3,6-dihydro-2H-pyridine-1-sulfonyl]-indan-1-carboxylic acid]	< 5 µM	< 5 µM	5 to 100 µM
C[C@H]1CN(c2ccc(C(F)(F)F)cn2)CCN1S(=O)(=O)c1ccc2c(c1)C(C(=O)O)CC2 (stereo partly drawn) [Example 23, 6-[2-(S)-methyl-4-(5-trifluoromethyl-pyridin-2-yl)-piperazine-1-sulfonyl]-indan-1-carboxylic acid]	< 5 µM	< 5 µM	< 5 µM
C[C@@H]1CN(c2ccc(C(F)(F)F)cn2)CCN1S(=O)(=O)c1ccc2c(c1)C(C(=O)O)CC2 (stereo partly drawn) [Example 24, 6-[2-(R)-methyl-4-(5-trifluoromethyl-pyridin-2-yl)-piperazine-1-sulfonyl]-indan-1-carboxylic acid]	< 5 µM	< 5 µM	< 5 µM
C[C@@H]1CN(S(=O)(=O)c2ccc3c(c2)C(C(=O)O)CC3)CCN1c1ccc(C(F)(F)F)cn1 (stereo partly drawn) [Example 25, 6-[3-(R)-methyl-4-(5-trifluoromethyl-pyridin-2-yl)-piperazine-1-sulfonyl]-indan-1-carboxylic acid]	< 5 µM	< 5 µM	< 5 µM
